Results reported in publication PMC4809498, “Artonin E Induces Apoptosis via Mitochondrial Dysregulation in SKOV-3 Ovarian Cancer Cells” (PLoS ONE, 2016).

Test system: caspase-3
Experiment: Western blot, caspase-3
Format: cell-based, human
Details: SKOV-3, 8 μg/mL, as early as 24 h
Method: SKOV-3 cells were plated in a 75cm^2 culture flask and exposed to artonin E for 24, 48, and 72 h. Lysis buffer (50 mM Tris–HCl, pH 8.0; 120 mM NaCl, 0.5% NP-40; and 1 mM PMSF) was used to extract the total protein. Protein concentration was determined using a BCA protein assay reagent kit (Bio-Rad, USA). Equal amounts of protein (40 μg) extract were subjected to SDS-PAGE and electroblotted onto a polyvinylidenedifluoride membrane (Bio-Rad). Blots were then blocked with 5% non-fat milk in TBS-Tween buffer 7 (0.12 M Tris-base, 1.5 M NaCl, and 0.1% Tween 20) for 1 h at room temperature. After incubating with the appropriate primary antibody overnight at 4°C, the blots were washed and then incubated with horseradish peroxidase conjugated secondary antibody for 1 h at room temperature. The protein bands were detected using pico or femto chemiluminescence (ECL system) and visualized using a UV gel documentation system. The subsequent primary antibodies, which include those for β-actin (1:10,000), Bax (1:10,000), Bcl-2 (1:10,000), HSP-70 (1:10,000), survivin (1:10,000),caspase -3 (1:10,000), caspase -8 (1:10,000), caspase -9 (1;10,000) and cytochrome c (1:200) were purchased from Abcam, Cambridge, United Kingdom.

CC(C)=CCc1c(-c2cc(O)c(O)cc2O)oc2c3c(cc(O)c2c1=O)OC(C)(C)C=C3 [Artonin E, artonin E]
protein expression level of caspase-3: significantly (p<0.05) up-regulated
